System: Parc-overexpressing (Flag-Parc/U2OS) cells
Test: Subcellular p53 localization by immunofluorescent staining (anti-p53 1801)
Assay type: cell-based, human
Conditions: etoposide 1 μM for 6 hours
Description: FIGS. 10A and 10B Parc over-expression abrogates stress-induced nuclear localization of endogenous p53 in U2OS cells. […] The etoposide-treated cells were immunostained with anti-p53 antibody (1801) (visualized by fluorescence) and counterstained with DAPI to visualize the nuclei. (B) Quantification of subcellular p53 localization in parental U2OS and in Parc-overexpressing (Flag-Parc/U2OS) cell lines after the cells were immunostained with the anti-p53 antibody (1801).
For the p53 cytoplasmic sequestration assay, cells were transfected with 30 ng/well CMV-p53 and 150 ng/well CMV-Parc. 24 hours post-transfection cells were fixed with 4% paraformaldehyde for 20 min. on ice, rehydrated for 5 min in serum-free DMEM and permeabilized with 0.2% Triton X100 (Fisher) for 10 min on ice. Cells were incubated in 1% bovine serum albumin (BSA) (Sigma)/Phosphate Buffered Salt solution (PBS) (Cellgro) for 30 min. Primary p53-specific monoclonal (for endogenous p53 immunostaining) (DO-1, 1801, Santa Cruz) or polyclonal (for transfected p53 immunostaining) (FL-393, Santa Cruz) antibodies or anti-Flag monoclonal antibody (for transfected Flag-Parc and Flag-Myc immunostaining) (Santa Cruz) were added in 1% BSA/PBS for 45 min at room temperature. […]

COc1cc([C@@H]2c3cc4c(cc3[C@@H](O[C@@H]3O[C@@H]5CO[C@@H](C)O[C@H]5[C@H](O)[C@H]3O)[C@H]3COC(=O)[C@H]23)OCO4)cc(OC)c1O [etoposide]
cells with nuclear p53 staining: less than 30%
